Measured values reported in patent US20260207563A1, “UREA COMPOUNDS AS ACTIVATORS OF POTASSIUM CHANNELS KV7.2/7.3 USEFUL IN THE TREATMENT OF CNS AND PNS DISORDERS” (ANGELINI PHARMA S.P.A., priority 2022, published 2026).

How the values were obtained:
Type in all cases: cell-based
[1] = target: T1, heteromeric KV7.3/KV7.5 channel (KCNQ3, KCNQ5) (Homo sapiens, UniProt O43525+Q9NR82); test: Automated patch-clamp counter-screening against KV7.3/KV7.5 channel; conditions: HEK293 cells expressing Kv7.3/KV7.5; class by maximal shift in the Vhalf at 30 μM
T1 construct: host or cells: HEK293
Outline: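 HEK293 cells with constitutive Kv7.3 and tetracycline-inducible Kv7.5 were recorded by automated patch clamp. Ten concentrations (1:3 series from 30 μM, quadruplicate) were tested; Vhalf shifts were fitted with a 4-parameter logistic to give EC50 and maximal Vhalf shift, with selectivity based on the shift at 30 μM.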

[2] = target: T2, homomeric KV7.4 channel (KCNQ4) (Homo sapiens, UniProt P56696); test: Automated patch-clamp (Qube) counter-screening assay against KV7.4 channel; conditions: CHO-K1 cells expressing KV7.4; class by maximal shift in the Vhalf at 30 μM
T2 construct: host or cells: CHO-K1
Outline: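 CHO-K1 cells stably expressing homomeric human KV7.4 were recorded on the Qube automated patch clamp. Ten concentrations (1:3 dilutions from 30 μM) were tested in quadruplicate. The mean Vhalf shift was fitted with a 4-parameter logistic to give EC50 and maximal Vhalf shift, and selectivity was based on the shift at 30 μM.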

[3] = target: T3, heteromeric KV7.2/KV7.3 channels (KCNQ2, KCNQ3) (Homo sapiens, UniProt O43525+O43526); test: Automated patch-clamp (Sophion Qube 384) potency assay against KV7.2/KV7.3 channels; conditions: CHO-K1/Kv7.2/Kv7.3 cells; for EC50: EC50 from concentration-response of shift in Vhalf, 10 concentrations up to 30 μM, read-out: Kv7.2/7.3 EC50; for Kv7.2/7.3 ΔV1/2: maximal shift in the Vhalf from the top of the curve
T3 construct: expressed in transfected cells; host or cells: CHO-K1
Outline: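 Whole-cell automated patch clamp on CHO-K1 cells stably expressing human KV7.2/KV7.3, held at −80 mV; I-V steps −100 to +20 mV (1 s) with 0 mV tail pulses, Boltzmann-fitted activation curves. Ten concentrations (1:3 from 30 μM, quadruplicate) versus 0.3% DMSO control; EC50 and maximal shift from 4-parameter fits of Vhalf shift.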

Structure (SMILES)	Kv7.3/7.5 selectivity criteria [1]	Kv7.4 selectivity criteria [2]	EC50 [3]	Kv7.2/7.3 ΔV1/2 [3]
O=C(NCCC1(C(F)(F)F)CC1)NCc1cc(OCC(F)(F)F)ncn1 [Compound 38, 1-((6-(2,2,2-Trifluoroethoxy)pyrimidin-4-yl)methyl)-3-(2-(1-(trifluoromethyl)cyclopropyl)ethyl)urea]	A (Selective compounds showed Kv7.4 and/or Kv7.3/7.5 ΔV1/2 equal to or lower than 15 mV (letter A in table 3))	A (Selective compounds showed Kv7.4 and/or Kv7.3/7.5 ΔV1/2 equal to or lower than 15 mV (letter A in table 3))	2.02 µM	28.31 mV
Cc1cc(CNC(=O)NCCC2(C(F)(F)F)CC2)cc(OCC(F)(F)F)n1 [Compound 39, 1-((2-Methyl-6-(2,2,2-trifluoroethoxy)pyridin-4-yl)methyl)-3-(2-(1-(trifluoromethyl)cyclopropyl)ethyl)urea]	A (Selective compounds showed Kv7.4 and/or Kv7.3/7.5 ΔV1/2 equal to or lower than 15 mV (letter A in table 3))	A (Selective compounds showed Kv7.4 and/or Kv7.3/7.5 ΔV1/2 equal to or lower than 15 mV (letter A in table 3))	1.47 µM	21.29 mV
CC(C)(CCNC(=O)NCc1ccnc(OCC(F)(F)F)c1)C(F)(F)F [Compound 41, 1-(4,4,4-Trifluoro-3,3-dimethylbutyl)-3-((2-(2,2,2-trifluoroethoxy)pyridin-4-yl)methyl)urea]	A (Selective compounds showed Kv7.4 and/or Kv7.3/7.5 ΔV1/2 equal to or lower than 15 mV (letter A in table 3))	A (Selective compounds showed Kv7.4 and/or Kv7.3/7.5 ΔV1/2 equal to or lower than 15 mV (letter A in table 3))	0.428 µM	29.72 mV
O=C(NCc1cccc(F)c1)NCc1ccnc(OCC(F)(F)F)c1 [Compound 42, 1-(3-Fluorobenzyl)-3-((2-(2,2,2-trifluoroethoxy)pyridin-4-yl)methyl)urea]	A (Selective compounds showed Kv7.4 and/or Kv7.3/7.5 ΔV1/2 equal to or lower than 15 mV (letter A in table 3))	A (Selective compounds showed Kv7.4 and/or Kv7.3/7.5 ΔV1/2 equal to or lower than 15 mV (letter A in table 3))	0.872 µM	16.7 mV
O=C(NCc1ccnc(OCC(F)(F)F)c1)NC1CCCCC1 [Compound 43, 1-Cyclohexyl-3-((2-(2,2,2-trifluoroethoxy)pyridin-4-yl)methyl)urea]	B (Non-selective compounds showed Kv7.4 and/or Kv7.3/7.5 ΔV1/2 higher than 15 mV (letter B in table 3))	B (Non-selective compounds showed Kv7.4 and/or Kv7.3/7.5 ΔV1/2 higher than 15 mV (letter B in table 3))	0.765 µM	53.72 mV
O=C(NCCC1(C(F)(F)F)CC1)NCc1ccnc(N2CC(C(F)(F)F)C2)c1 [Compound 44, 1-((2-(3-(Trifluoromethyl)azetidin-1-yl)pyridin-4-yl)methyl)-3-(2-(1-(trifluoromethyl)cyclopropyl)ethyl)urea]	A (Selective compounds showed Kv7.4 and/or Kv7.3/7.5 ΔV1/2 equal to or lower than 15 mV (letter A in table 3))	A (Selective compounds showed Kv7.4 and/or Kv7.3/7.5 ΔV1/2 equal to or lower than 15 mV (letter A in table 3))	6.3 µM	17.02 mV
Cc1ccccc1NC(=O)NCc1ccnc(OCC(F)(F)F)c1 [Compound 46, 1-(o-Tolyl)-3-((2-(2,2,2-trifluoroethoxy)pyridin-4-yl)methyl)urea]	B (Non-selective compounds showed Kv7.4 and/or Kv7.3/7.5 ΔV1/2 higher than 15 mV (letter B in table 3))	B (Non-selective compounds showed Kv7.4 and/or Kv7.3/7.5 ΔV1/2 higher than 15 mV (letter B in table 3))	0.432 µM	21.41 mV
C[C@H](Oc1cc(CNC(=O)NCCC2(C(F)(F)F)CC2)ccn1)C(F)(F)F [Compound 47, (S)-1-(2-(1-(Trifluoromethyl)cyclopropyl)ethyl)-3-((2-((1,1,1-trifluoropropan-2-yl)oxy)pyridin-4-yl)methyl)urea]	A (Selective compounds showed Kv7.4 and/or Kv7.3/7.5 ΔV1/2 equal to or lower than 15 mV (letter A in table 3))	A (Selective compounds showed Kv7.4 and/or Kv7.3/7.5 ΔV1/2 equal to or lower than 15 mV (letter A in table 3))	0.254 µM	26.23 mV
CC(C)(OCCNC(=O)NCc1ccnc(OCC(F)(F)F)c1)C(F)(F)F [Compound 48, 1-(2-((1,1,1-Trifluoro-2-methylpropan-2-yl)oxy)ethyl)-3-((2-(2,2,2-trifluoroethoxy)pyridin-4-yl)methyl)urea]	A (Selective compounds showed Kv7.4 and/or Kv7.3/7.5 ΔV1/2 equal to or lower than 15 mV (letter A in table 3))	A (Selective compounds showed Kv7.4 and/or Kv7.3/7.5 ΔV1/2 equal to or lower than 15 mV (letter A in table 3))	2.41 µM	22.74 mV
O=C(NCCC1(C(F)(F)F)CC1)NCc1ccnc(OCC(F)(F)F)n1 [Compound 49, 1-((2-(2,2,2-Trifluoroethoxy)pyrimidin-4-yl)methyl)-3-(2-(1-(trifluoromethyl)cyclopropyl)ethyl)urea]	A (Selective compounds showed Kv7.4 and/or Kv7.3/7.5 ΔV1/2 equal to or lower than 15 mV (letter A in table 3))	A (Selective compounds showed Kv7.4 and/or Kv7.3/7.5 ΔV1/2 equal to or lower than 15 mV (letter A in table 3))	4.23 µM	23.89 mV
C[C@@H](Oc1cc(CNC(=O)NCCC2(C(F)(F)F)CC2)ccn1)C(F)(F)F [Compound 51, (R)-1-(2-(1-(Trifluoromethyl)cyclopropyl)ethyl)-3-((2-((1,1,1-trifluoropropan-2-yl)oxy)pyridin-4-yl)methyl)urea]	A (Selective compounds showed Kv7.4 and/or Kv7.3/7.5 ΔV1/2 equal to or lower than 15 mV (letter A in table 3))	A (Selective compounds showed Kv7.4 and/or Kv7.3/7.5 ΔV1/2 equal to or lower than 15 mV (letter A in table 3))	0.289 µM	33.62 mV
O=C(NCCC1(C(F)(F)F)CC1)NCc1ccnc(OCc2ncccc2F)c1 [Compound 54, 1-((2-((3-Fluoropyridin-2-yl)methoxy)pyridin-4-yl)methyl)-3-(2-(1-(trifluoromethyl)cyclopropyl)ethyl)urea]	A (Selective compounds showed Kv7.4 and/or Kv7.3/7.5 ΔV1/2 equal to or lower than 15 mV (letter A in table 3))	A (Selective compounds showed Kv7.4 and/or Kv7.3/7.5 ΔV1/2 equal to or lower than 15 mV (letter A in table 3))	7.61 µM	22.67 mV
O=C(NCc1ccnc(OCC(F)(F)F)c1)N[C@H]1CCCC[C@H]1O [Compound 58, 1-((1S,2R)-2-Hydroxycyclohexyl)-3-((2-(2,2,2-trifluoroethoxy)pyridin-4-yl)methyl) urea]	B (Non-selective compounds showed Kv7.4 and/or Kv7.3/7.5 ΔV1/2 higher than 15 mV (letter B in table 3))	B (Non-selective compounds showed Kv7.4 and/or Kv7.3/7.5 ΔV1/2 higher than 15 mV (letter B in table 3))	10.5 µM	48.9 mV
O=C(NCc1ccnc(OCC(F)(F)F)c1)N[C@@H]1CCCC[C@@H]1O [Compound 62, 1-((1R,2S)-2-Hydroxycyclohexyl)-3-((2-(2,2,2-trifluoroethoxy)pyridin-4-yl)methyl) urea]	B (Non-selective compounds showed Kv7.4 and/or Kv7.3/7.5 ΔV1/2 higher than 15 mV (letter B in table 3))	A (Selective compounds showed Kv7.4 and/or Kv7.3/7.5 ΔV1/2 equal to or lower than 15 mV (letter A in table 3))	11.7 µM	16.94 mV
O=C(NCc1ccnc(OCC(F)(F)F)c1)N[C@H]1CCCC[C@@H]1O [Compound 63, 1-((1S,2S)-2-Hydroxycyclohexyl)-3-((2-(2,2,2-trifluoroethoxy)pyridin-4-yl)methyl)urea]	B (Non-selective compounds showed Kv7.4 and/or Kv7.3/7.5 ΔV1/2 higher than 15 mV (letter B in table 3))	B (Non-selective compounds showed Kv7.4 and/or Kv7.3/7.5 ΔV1/2 higher than 15 mV (letter B in table 3))	11.8 µM	33.01 mV
C[C@@H](NC(=O)NCCC1(C(F)(F)F)CC1)c1ccnc(OCC(F)(F)F)c1 [Compound 65, (R)-1-(1-(2-(2,2,2-Trifluoroethoxy)pyridin-4-yl)ethyl)-3-(2-(1-(trifluoromethyl)cyclopropyl)ethyl)urea]	A (Selective compounds showed Kv7.4 and/or Kv7.3/7.5 ΔV1/2 equal to or lower than 15 mV (letter A in table 3))	A (Selective compounds showed Kv7.4 and/or Kv7.3/7.5 ΔV1/2 equal to or lower than 15 mV (letter A in table 3))	0.152 µM	26.28 mV
